Measurements from patent US20060264455A1 (priority 2005, published 2006).
Where “and” joins values, the source holds several entries; their conditions need not be identical. Identical values can stand only once. Like-named read-outs stand apart in the source and are kept apart here.

Legend:
[1] = Toxicity Model (TOX), rotorod, mice; assay type: in vivo; details: male, CFI, mouse, in vivo, ip; mice
Source text: (§1) To investigate the neurotoxicity levels of the huperzine compounds, the Toxicity Model (TOX) using a rotorod is employed. The animals (e.g., mice) were trained to stand on an accelerating rotorod rotating at 10 rev min^−1 with a diameter of 3.2 cm. The trained animal can be given the huperzine compound at various doses and the effect of huperzine on their motor skills can be determined. The dose at which the animals fell off the rotorod is the toxic dose.
(§2) The neurotoxicity of huperzine was tested in the rotorod test. The mice were trained to stand on an accelerating rotorod rotating at 10 rev min^−1 with a diameter of 3.2 cm. The trained animals were given the huperzine at various doses and the effect of huperzine on their motor skills was determined. The dose at which the animals fell off the rotorod was the toxic dose.

motor skills on rotorod = test: Toxicity Model (TOX), rotorod, mice; assay type: in vivo; details: for N/F (mice showing an effect / mice tested), TOX: ip; for Behavioral motor impairment, share of mice tested: po
Source text: as §1, §2

[2] = tested on: minimal motor impairment (ataxia, abnormal gait and stance); details: rat, in vivo
[3] = tested on: 6 Hz limbic seizures (corneal stimulation); details: for N/F, Time to Peak Effect: IP, 32 mA series; for COMMENT (observed effect): ip
Source text: These three tests are highly predictive of efficacy against human generalized tonic-clonic (MES), generalized myoclonic (sc PTZ), and refractory limbic (6 Hz) seizures, respectively.
Male, 18-25 g CFI mice and 100-125 g Sprague-Dawley rats (Charles River Laboratories, Wilmington, Mass.) were used as the experimental animals. Animals were pretreated intraperitoneally (i.p.) with increasing doses of HupA and tested at various times after administration for protection against tonic extension (MES test), minimal clonic (s.c. PTZ test), limbic (6 Hz), or secondarily generalized (kindled rat) seizures. Seizure testing was carried out as follows. For the MES and 6 Hz tests, a drop of anesthetic/electrolyte solution (0.5% tetracaine hydrochloride in 0.9% saline) was applied to the eyes of each animal prior to placement of the corneal electrodes.

[4] = tested on: maximal electroshock (MES) tonic extension seizures; test: Maximal Electroshock (MES) model, rats; details: oral, 1 mg/kg
Source text: (§3) The maximal electroshock (MES) model is an art recognized test, useful to investigate the efficacy of therapeutic agents against grand mal seizures. Maximal seizures were induced by the application of electrical current to the brain via corneal electrodes. The stimulus parameters for mice were 50 mA in a pulse of 60 Hz for 200 ms.
(§4) Male, 18-25 g CFI mice and 100-125 g Sprague-Dawley rats (Charles River Laboratories, Wilmington, Mass.) were used as the experimental animals. Animals were pretreated intraperitoneally (i.p.) with increasing doses of HupA and tested at various times after administration for protection against tonic extension (MES test), minimal clonic (s.c. PTZ test), limbic (6 Hz), or secondarily generalized (kindled rat) seizures. Seizure testing was carried out as follows. For the MES and 6 Hz tests, a drop of anesthetic/electrolyte solution (0.5% tetracaine hydrochloride in 0.9% saline) was applied to the eyes of each animal prior to placement of the corneal electrodes. […] Animals not displaying secondarily generalize seizures were considered protected.

[5] = tested on: subcutaneous Metrazol (pentylenetetrazol) seizures; details: i.p.
Description: Male, 18-25 g CFI mice and 100-125 g Sprague-Dawley rats (Charles River Laboratories, Wilmington, Mass.) were used as the experimental animals. Animals were pretreated intraperitoneally (i.p.) with increasing doses of HupA and tested at various times after administration for protection against tonic extension (MES test), minimal clonic (s.c. PTZ test), limbic (6 Hz), or secondarily generalized (kindled rat) seizures. Seizure testing was carried out as follows. For the MES and 6 Hz tests, a drop of anesthetic/electrolyte solution (0.5% tetracaine hydrochloride in 0.9% saline) was applied to the eyes of each animal prior to placement of the corneal electrodes. […] The ability of the test substance to prevent seizures induced by 6 Hz corneal stimulation (32 mA, 3 sec duration) was assessed at various times after i.p. administration of 1 mg/kg HupA For assessment of hippocampal kindling, HupA (1 mg/kg, i.p.) was administered.

[6] = tested on: maximal electroshock (MES) tonic extension seizures; test: Maximal Electroshock (MES) model, mice; details: for Mice protected against seizures, MES: 3 mg/kg; for N/F, MES time course: mice, I.P., 5 mg/kg
Source text: as §3, §4

patients = details: human, in vivo; cited from earlier work
[7] = tested on: minimal motor impairment (ataxia, abnormal gait and stance); test: Toxicity (TOX) / minimal motor impairment, rats; details: oral, 1 mg/kg
[8] = tested on: hippocampal kindled seizures; test: Rapid hippocampal kindling model, rat; assay type: in vivo; details: 1 mg/kg, i.p., time of test ¼-3 h
Description: Seizure testing was carried out as follows.

[9] = tested on: formalin-induced paw-licking; test: Formalin test (paw licking/biting) in mice; assay type: in vivo; details: for Duration of Licking: Trial 1, one value per animal #01-08; for activity at 0.5 mg/kg / activity at 1 mg/kg: Mus musculus, ip, read-out: Area Under the Curve, % of Control
Description: The formalin test for antinociceptive activity is described in numerous publications, e.g., Hunskaar, S., O. B. Fasmer, and K. Hole, J. Neurosci. […] The formalin test is accepted as an art recognized model of persistent clinical pain.
Male Swiss Webster NIH mice (20-30 g; Harlan, San Diego, Calif.) were used in the experiments described herein. Food was withdrawn on the day of experiment. Mice were placed in Plexiglass jars for at least 1 hour to accommodate to the environment. Following the accommodation period, mice were weighed and given either a huperzine compound administered intraperitoneal (i.p.) or oral (p.o.), or the appropriate volume of vehicle (10% Tween-80). Fifteen minutes after the i.p. dosing, and 30 minutes after the p.o. dosing mice were injected with formalin (20 μL of 5% formaldehyde solution in saline) into the dorsal surface of the right hind paw. Mice were transferred to the Plexiglass jars and monitored for the amount of time spent licking or biting the injected paw. Periods of licking and biting were recorded in 5 minute intervals for 40 minutes after the formalin injection. All experiments were done in a blinded manner. The early phase (acute) of the formalin response is measured as licking/biting between 0-5 minutes, and the late phase (inflammatory) is measured from 10-40 minutes. Differences between vehicle and drug treated groups are analyzed by one-way analysis of variance (ANOVA). A P value<0.05 is considered significant.
Fifteen minutes after the i.p. dosing, mice were injected with formalin (20 μL of 5% formaldehyde solution in saline) into the dorsal surface of the right hind paw. Periods of licking and biting were recorded in 5 minute intervals for 40 minutes after the formalin injection as shown below in Tables 1 and 2. All experiments were done according to the art-recognized Anticonvulsant Screening Program of the NINDS at the University of Utah.
Duration of paw licking in the tables below is expressed in seconds.

[10] = 0.5 mg/kg i.p., Inflammatory phase
[11] = 1 mg/kg i.p., Inflammatory phase

C/C=C1\[C@H]2C=C(C)C[C@]1(N)c1ccc(=O)[nH]c1C2 [Huperzine A]
TD50 [1]: 0.83 mg/kg
Toxicity (motor skills on rotorod; 5 mg/kg I.P., within 30 minutes post administration): toxic in all animals
Behavioral impairment (motor skills on rotorod; mouse, in vivo): marked motor impairment
N/F (mice showing an effect / mice tested), TOX (motor skills on rotorod; mouse, in vivo, 0.1 mg/kg, 4 h): 0/4
N/F (mice showing an effect / mice tested), TOX (motor skills on rotorod; mouse, in vivo, 0.3 mg/kg, 4 h): 0/4
N/F (mice showing an effect / mice tested), TOX (motor skills on rotorod; mouse, in vivo, 1 mg/kg, 0.5 h): 4/4
N/F (mice showing an effect / mice tested), TOX (motor skills on rotorod; mouse, in vivo, 1 mg/kg, 4 h): 2/2
N/F (mice showing an effect / mice tested), TOX (motor skills on rotorod; mouse, in vivo, 3 mg/kg, 0.5 h): 8/8
N/F (mice showing an effect / mice tested), TOX (motor skills on rotorod; mouse, in vivo, 3 mg/kg, 4 h): 4/4
N/F (mice showing an effect / mice tested), TOX (motor skills on rotorod; mouse, in vivo, 10 mg/kg, 0.5 h): 4/4
N/F (mice showing an effect / mice tested), TOX (motor skills on rotorod; mouse, in vivo, 10 mg/kg, 4 h): 2/2
N/F (mice showing an effect / mice tested), TOX (motor skills on rotorod; mouse, in vivo, 30 mg/kg, 0.5 h): 4/4
N/F (mice showing an effect / mice tested), TOX (motor skills on rotorod; mouse, in vivo, 100 mg/kg, 0.5 h): 8/8
N/F (mice showing an effect / mice tested), TOX (motor skills on rotorod; mouse, in vivo, 300 mg/kg, 0.5 h): 4/4
Behavioral motor impairment, share of mice tested (motor skills on rotorod; mouse, in vivo, 2 mg/kg): 75%
Behavioral motor impairment, share of mice tested (motor skills on rotorod; mouse, in vivo, 4 mg/kg): 100%
Behavioral impairment [2]: marked motor impairment
Protection in the mouse 6 Hz test (FIG. 1) ([3]; 0.8 mg/kg): time-dependent protection
Maximum Protection Observed ([3]; 6 Hz, Mouse, 0.83 mg/kg, i.p., time of test 1 h): 100%
N/F, Time to Peak Effect ([3]; 0.83 mg/kg, 0.25 h): 1/4
N/F, Time to Peak Effect ([3]; 0.83 mg/kg, 0.5 h): 1/4
N/F, Time to Peak Effect ([3]; 0.83 mg/kg, 1.0 h): 4/4
N/F, Time to Peak Effect ([3]; 0.83 mg/kg, 2.0 h): 2/4
N/F, Time to Peak Effect ([3]; 0.83 mg/kg, 4.0 h): 0/4
Protection against 6 Hz seizures (FIG. 2) ([3]; mouse, in vivo): dose-dependent protection
COMMENT (observed effect) ([3]; mouse, in vivo, 0.18 mg/kg): Minimal motor impairment
COMMENT (observed effect) ([3]; mouse, in vivo, 0.2 mg/kg): Tremors
COMMENT (observed effect) ([3]; mouse, in vivo, 0.35 mg/kg): Minimal motor impairment
N/F, MES time course ([4]; 0.25 h): 0/4
N/F, MES time course ([4]; 0.5 h): 0/4
N/F, MES time course ([4]; 1.0 h): 1/4
N/F, MES time course ([4]; 2.0 h): 1/4
N/F, MES time course ([4]; 4.0 h): 0/4
N/F, MES time course ([4]; 6.0 h): 0/4
N/F (mice showing an effect / mice tested), SCMET ([5]; 1 mg/kg SOL, 0.5 h): 3/5
N/F (mice showing an effect / mice tested), SCMET ([5]; 1 mg/kg SOL, 4.0 h): 0/1
N/F (mice showing an effect / mice tested), SCMET ([5]; 3 mg/kg SUS, 0.5 h): 1/1
N/F (mice showing an effect / mice tested), SCMET ([5]; 3 mg/kg SUS, 4.0 h): 0/1
N/F (mice showing an effect / mice tested), SCMET ([5]; 10 mg/kg SUS, 0.5 h): 0/1
N/F (mice showing an effect / mice tested), SCMET ([5]; 10 mg/kg SUS, 4.0 h): 1/1
Maximum Protection Observed ([5]; scPTZ, Mouse, 1 mg/kg, time of test 2 h): 25%
Protection in the mouse MES test (FIG. 1) ([6]; 1 mg/kg): time-dependent protection
Mice protected against seizures, MES ([6]; 30 minutes post administration): 33%
Mice protected against seizures, MES ([6]; four hours post administration): 100%
Maximum Protection Observed ([6]; MES, Mouse, 1 mg/kg, i.p., time of test 1 & 2 h): 75%
N/F (mice showing an effect / mice tested), MES ([6]; i.p., 0.1 mg/kg SOL, 4.0 h): 0/4
N/F (mice showing an effect / mice tested), MES ([6]; i.p., 0.3 mg/kg SOL, 4.0 h): 0/4
N/F (mice showing an effect / mice tested), MES ([6]; i.p., 1 mg/kg SUS, 0.5 h): 0/1
N/F (mice showing an effect / mice tested), MES ([6]; i.p., 1 mg/kg SUS, 4.0 h): 1/1
N/F (mice showing an effect / mice tested), MES ([6]; i.p., 3 mg/kg SUS, 0.5 h): 1/3
N/F (mice showing an effect / mice tested), MES ([6]; i.p., 3 mg/kg SUS, 4.0 h): 3/3
N/F (mice showing an effect / mice tested), MES ([6]; i.p., 10 mg/kg SUS, 0.5 h): 1/1
N/F (mice showing an effect / mice tested), MES ([6]; i.p., 10 mg/kg SUS, 4.0 h): 1/1
N/F, MES time course ([6]; 0.5 h): 1/4
N/F, MES time course ([6]; 1.0 h): 3/4
N/F, MES time course ([6]; 2.0 h): 3/4
N/F, MES time course ([6]; 4.0 h): 3/4
N/F, MES time course ([6]; 6.0 h): 4/4
Adverse effects in patients (patients): noted infrequently and were mainly cholinergic
Toxicity [7]: no toxicity in any of the animals
Maximum Protection Observed [8]: 0%
Time spent licking ([9]; 0.5 mg/kg i.p.): impressive reduction in the time spent licking
Duration of Licking ([9]; 0.5 mg/kg i.p., 0 min): 10.00 sec and 0.00 sec and 3.00 sec and 1.00 sec (4×) and 2.00 sec
Duration of Licking ([9]; 0.5 mg/kg i.p., 5 min): 0.00 s
Duration of Licking ([9]; 0.5 mg/kg i.p., 10 min): 0.00 s
Duration of Licking ([9]; 0.5 mg/kg i.p., 15 min): 0.00 s
Duration of Licking ([9]; 0.5 mg/kg i.p., 20 min): 0.00 s
Duration of Licking ([9]; 0.5 mg/kg i.p., 25 min): 0.00 s
Duration of Licking ([9]; 0.5 mg/kg i.p., 30 min): 0.00 s
Duration of Licking ([9]; 0.5 mg/kg i.p., 35 min): 0.00 s
Duration of Licking ([9]; 0.5 mg/kg i.p., 40 min): 0.00 s
Area Under the Curve, Drug Tested ([9]; 0.5 mg/kg i.p., Acute phase): 7.3
Area Under the Curve, Drug Tested [9, 10]: 0.0
Inhibition of phase 1 (acute) and phase 2 (inflammatory) pain response ([9]; 1 mg/kg i.p., mice): complete inhibition
Area Under the Curve, Drug Treated ([9]; 1 mg/kg i.p., Acute phase): 0.0
Area Under the Curve, Drug Treated [9, 11]: 0.0
activity at 0.5 mg/kg ([9]; 0.5 mg/kg i.p., Acute phase): 2.8%
activity at 0.5 mg/kg [9, 10]: 0%
activity at 1 mg/kg ([9]; 1 mg/kg i.p., Acute phase): 0%
activity at 1 mg/kg [9, 11]: 0%
